{"source": "patent US20090156457A1", "about": "“METHODS AND MEANS FOR SCREENING FOR RHOMBOID ACTIVITY” (MEDICAL RESEARCH COUNCIL, priority 2004, published 2009)", "origin": "cited, not measured here", "system": "Rhomboid"}
{"smiles": "O=c1oc(Cl)c(Cl)c2ccccc12", "note": "[3,4-DCI]", "values": [{"measurement": "Rhomboid activity", "value": "inhibit Rhomboid activity"}]}
{"smiles": "Cc1ccc(S(=O)(=O)N[C@@H](Cc2ccccc2)C(=O)CCl)cc1", "note": "[TPCK]", "values": [{"measurement": "Rhomboid activity", "value": "inhibit Rhomboid activity"}]}
